# In patent publication US20030180398A1, “Composition for treating gastric ulcer and a process for preparing the same” (priority 2002, published 2003):
# Columns and labels:
# [1] = test system: histamine induced duodenal ulcer; test: Histamine induced duodenal ulcer model; assay type: in vivo, Guinea pig
# Method: 1. Animals were fasted for 24 hours with access to water.
# 2. The drug was given orally 1 hour prior to the histamine administration.
# 3. Histamine was administered in a dose of 0.25 mg/Kg, i.m. at 30 minutes interval for 7 times and it induced 100% duodenal ulceration in guinea pig (According to the method of Watt and Eagleton 1964).
# 4. The animals were sacrificed after half an hour of last injection under ether anesthesia.
# 5. The stomach along with duodenum were removed washed thoroughly and examined for the lesions. Ulcer index and protection index were calculated.
# [2] = test system: Aspirin induced gastric ulcer; test: Aspirin induced gastric ulcer model; assay type: in vivo, rats
# Method: Gastric ulceration was induced by aspirin according to the method of Djahanguiri (1969). Aspirin (150 mg/Kg.) was administered per orally as a suspension in gum-acacia and the animal was sacrificed 5 hr. after the aspirin treatment and the ulcer index with protection index were calculated.
# [3] = test system: pyloric ligation induced ulcer; test: Pyloric ligation induced ulcer model; assay type: in vivo, rats
# Method: 1. Animals were fasted for 24 hours in the raised mesh bottom cages to prevent coprophagia and were allowed free access to water. 2. The control group of rats was feed with the vehicle and the experimental groups with their respective drugs 45 minutes prior to the ligation. 3. The animal was anesthetized, abdomen was cut opened under xiphoid process, and the pyloric portion of the stomach was slightly lifted and ligated avoiding any damage to the adjacent blood vessels (According to the method of Shay et al. 1945). 4. The animals were stitched and kept for 4 hours with free access to water. 5. After 4 hours the animals were sacrificed under ether anesthesia and the stomach was dissected out incised along the greater curvature. 6. The stomach was washed thoroughly and the ulcer index was scored as per in other ulcer models.
# [4] = test system: Alcohol induced gastric ulcers; test: Alcohol (ethanol) induced gastric ulcers in rats; assay type: in vivo
# Method: 1. Adult rats of either sex were taken; weighing 150-175 grams were fasted for 24 hours with free access to water.
# 2. The test drugs were administered (p.o.) 45 minutes before alcohol administration.
# 3.1 ml of chilled absolute alcohol was administered (p.o.) to the rats (According to the Wittetal).
# 4. Immediately after 1 hour, the animals were anesthetized, abdomen was cut opened stomach was taken out and incised along the greater curvature to observe the gastric lesions.
# The ulcers are examined under the 5× magnification with the help of magnascope.
# Absolute ethanol lesions appears as blackish lesions grouped in patches of varying size, usually parallel to the major axis of the stomach.
# 5. The lengths of the lesions are measured and summated to give a total lesion score, then calculated and expressed in percentage.
# [5] = test system: Cold Restraint Ulcer (CRU); test: Cold Restraint Ulcers (CRU) model; assay type: in vivo, rats
# Method: Adult rats of either sex, weighing 150-175 grams are fasted for 24 hours in metallic cages with raised mesh bottoms to prevent coprophagia and were allowed free access to water. The test drugs were administered 45 minutes before immobilizing the animals. The rats were immobilized in the restraint cage and kept at 4° C. in BOD incubator for 2 hours (According to the method of Senay and Levine 1967). The animals were sacrificed immediately after the restraint period. The abdomen was cut opened; stomach was taken out and incised along the greater curvature to observe the gastric lesions with the help of Magnascope (5× magnification)
# The following arbitrary scoring system was used to grade the severity and intensity of the lesions:
# 1. Shedding of epithelium=10
# 2. Petechial and frank hemorrhages=20
# 4. More than two ulcers=40
# The presence of any of these lesions was considered as a positive ulcerogenic response which has been shown as percentage of rats showing gastric lesions. The severity of ulcers is expressed in terms of ulcer index, which is the mean score of gastric lesions of all the rats in a group. The term Ulcer Index is defined as:
# Ulcer Index (U.I.)=Us+Up×10^−1
# where Us=Mean severity of ulcer score and
# Up=Percentage of animals with Ulcer incidences
# The percentage protection is calculated as follows:
# Percentage protection=(C−T/C)×100.
# where C=Number of animals showing ulcer response in control group and
# T=Number of animals showing ulcer response in test group.
# [6] = Aspirin 150 mg/Kg p.o., 20 mg/Kg
structure (smiles),measurement,setting,value
COc1ccc2[nH]c([S+]([O-])Cc3ncc(C)c(OC)c3C)nc2c1 (centres unmarked) [Omeprazole],Mean severity of ulcer score,"[1]; Histamine i.m., 10 mg/Kg p.o.",6.66
same,Percentage of ulcer incidence (No. of animals showing ulcer/total No. of animals used),"[1]; Histamine i.m., 10 mg/Kg p.o.",33.33 (1/3) %
same,Ulcer index,"[1]; Histamine i.m., 10 mg/Kg p.o.",3.99
same,"Ulcer severity score 20, No. Guinea pig showing lesions/No. Guinea pig tested","[1]; Histamine i.m., 10 mg/Kg p.o.",1/3
same,Volume of gastric fluid,"[1]; Histamine i.m., 10 mg/Kg p.o.",1.0 ± 0.2 mL
same,% Protection,"[1]; Histamine i.m., 10 mg/Kg p.o., versus ulcer control",70.79%
same,Percentage protection in respect to the protection of Omeprazole,"[1]; histamine induced duodenal ulcer, Omeprazole taken as 100%",100%
same,Mean severity of ulcer score,[2]; [6],6.6
same,Percentage of ulcer incidence (No. of rats showing ulcer/total No. of rats used),[2]; [6],50 (3/6) %
same,Ulcer index,[2]; [6],5.66
same,"Ulcer severity score 10 (Shedding of epithelium), No. of rats showing lesions/No. of rats tested",[2]; [6],2/6
same,"Ulcer severity score 20 (Petechial and frank hemorrhages), No. of rats showing lesions/No. of rats tested",[2]; [6],1/6
same,Protection index,"[2]; Aspirin 150 mg/Kg p.o., 20 mg/Kg, versus aspirin control",54.81
same,Percentage protection in respect to the protection of Omeprazole,"[2]; aspirin induced ulcer, 10 mg/Kg, standard taken as 100%",100%
same,Ulcer index,"[3]; Ligation, 10 mg/Kg p.o.",6.6
same,Protection index,"[3]; Ligation, 10 mg/Kg p.o., versus ligation control",51.44
same,Percentage protection in respect to the protection of Omeprazole,"[3]; pyloric ligation induced ulcer, Omeprazole taken as 100%",100%
same,Length of hemorrhagic bands (mm ± SE),[4]; 100 mg/Kg p.o. + Ethanol,56.0 ± 9.12 mm
same,Percentage protection in respect to the protection of Omeprazole,"[4]; Alcohol induced ulcer, omeprazole taken as 100%",100.0%
same,Mean severity of ulcer score,[5]; 10 mg/Kg p.o.,07
same,Percentage of ulcer incidence (No. of rats showing ulcer/total No. of rats used),[5]; 10 mg/Kg p.o.,50 (5/10) %
same,Ulcer index,[5]; 10 mg/Kg p.o.,5.7
same,"Ulcer severity score 10 (Shedding of epithelium), No. of rats showing lesions/No. of rats tested",[5]; 10 mg/Kg p.o.,3/10
same,"Ulcer severity score 20 (Petechial and frank hemorrhages), No. of rats showing lesions/No. of rats tested",[5]; 10 mg/Kg p.o.,2/10
same,Protection index,"[5]; 10 mg/Kg p.o., versus CRU control",54.03
same,Percentage protection in respect to the protection of Omeprazole,"[5]; 10 mg/Kg, standard taken as 100%",100%
